Measurements published in patent publication US9469650B2, “Melampomagnolide B derivatives” (BOARD OF TRUSTEES OF THE UNIVERSITY OF ARKANSAS, priority 2013, dated 2016).
Like-named read-outs stand apart in the source and are kept apart here.

How the values were obtained:
NCI-H226 = assay: panel of 60 human tumor cell lines, growth inhibition (Non-Small Cell Lung Cancer); settings: NCI-H226
HCT-15 = assay: panel of 60 human tumor cell lines, growth inhibition (Colon Cancer); settings: HCT-15
MCF7 = assay: panel of 60 human tumor cell lines, growth inhibition (Breast Cancer); settings: MCF7
SF-268 = assay: panel of 60 human tumor cell lines, growth inhibition (CNS Cancer); settings: SF-268
SK-MEL-2 = assay: panel of 60 human tumor cell lines, growth inhibition (Melanoma); settings: SK-MEL-2
OVCAR-8 = assay: panel of 60 human tumor cell lines, growth inhibition (Ovarian Cancer); settings: OVCAR-8
IGROV1 = assay: as above; settings: IGROVI
NCI-H460 = assay: panel of 60 human tumor cell lines, growth inhibition (Non-Small Cell Lung Cancer); settings: NCI-H460
A549/ATCC = assay: as above; settings: A549/ATCC
TK-10 = assay: panel of 60 human tumor cell lines, growth inhibition (Renal Cancer); settings: TK-10
ACHN = assay: panel of 60 human tumor cell lines, growth inhibition (Renal Cancer)
MDA-MB-231/ATCC = assay: panel of 60 human tumor cell lines, growth inhibition (Breast Cancer); settings: MDA-MB-231/ATCC
MDA-MB-435 = assay: panel of 60 human tumor cell lines, growth inhibition (Melanoma); settings: MDA-MB-435
M14 = assay: as above; settings: M14
SN12C = assay: panel of 60 human tumor cell lines, growth inhibition (Renal Cancer)
BT-549 = assay: panel of 60 human tumor cell lines, growth inhibition (Breast Cancer); settings: BT-549
SK-MEL-5 = assay: panel of 60 human tumor cell lines, growth inhibition (Melanoma); settings: 8K-MEL-5
HS 578T = assay: panel of 60 human tumor cell lines, growth inhibition (Breast Cancer); settings: HS 578T

## C=C1C(=O)O[C@H]2[C@H]1CC/C(COC(=O)NC)=C\CC[C@@]1(C)O[C@@H]21 [JVM 2-57]
NCI-H226; Log10 Concentration −4.0
  Percent Growth: −52%
NCI-H226; Log10 Concentration −5.0
  Percent Growth: 49%
NCI-H226; Log10 Concentration −6.0
  Percent Growth: 86%
NCI-H226; Log10 Concentration −7.0
  Percent Growth: 101%
NCI-H226; Log10 Concentration −8.0
  Percent Growth: 92%
NCI-H226; NCI five dose
  GI50: 9.29 µM
  TGI: 3.06E−5
HCT-15; Log10 Concentration −4.0
  Percent Growth: −83%
HCT-15; Log10 Concentration −5.0
  Percent Growth: 4%
HCT-15; Log10 Concentration −6.0
  Percent Growth: 82%
HCT-15; Log10 Concentration −7.0
  Percent Growth: 97%
HCT-15; Log10 Concentration −8.0
  Percent Growth: 98%
HCT-15; NCI five dose
  GI50: 2.58 µM
  TGI: 1.12E−5
MCF7; Log10 Concentration −4.0
  Percent Growth: −75%
MCF7; Log10 Concentration −5.0
  Percent Growth: 4%
MCF7; Log10 Concentration −6.0
  Percent Growth: 83%
MCF7; Log10 Concentration −7.0
  Percent Growth: 88%
MCF7; Log10 Concentration −8.0
  Percent Growth: 94%
MCF7; NCI five dose
  GI50: 2.61 µM
  TGI: 1.11E−5
SF-268; Log10 Concentration −4.0
  Percent Growth: −73%
SF-268; Log10 Concentration −5.0
  Percent Growth: 66%
SF-268; Log10 Concentration −6.0
  Percent Growth: 92%
SF-268; Log10 Concentration −7.0
  Percent Growth: 90%
SF-268; Log10 Concentration −8.0
  Percent Growth: 92%
SF-268; NCI five dose
  GI50: 13 µM
  TGI: 2.98E−5
SK-MEL-2; Log10 Concentration −4.0
  Percent Growth: −70%
SK-MEL-2; Log10 Concentration −5.0
  Percent Growth: 53%
SK-MEL-2; Log10 Concentration −6.0
  Percent Growth: 99%
SK-MEL-2; Log10 Concentration −7.0
  Percent Growth: 99%
SK-MEL-2; Log10 Concentration −8.0
  Percent Growth: 96%
SK-MEL-2; NCI five dose
  GI50: 10.5 µM
  TGI: 2.69E−5
OVCAR-8; Log10 Concentration −4.0
  Percent Growth: −76%
OVCAR-8; Log10 Concentration −5.0
  Percent Growth: 30%
OVCAR-8; Log10 Concentration −6.0
  Percent Growth: 92%
OVCAR-8; Log10 Concentration −7.0
  Percent Growth: 160%
OVCAR-8; Log10 Concentration −8.0
  Percent Growth: 100%
OVCAR-8; NCI five dose
  GI50: 4.82 µM
  TGI: 1.93E−5
IGROV1; Log10 Concentration −4.0
  Percent Growth: −57%
IGROV1; Log10 Concentration −5.0
  Percent Growth: 8%
IGROV1; Log10 Concentration −6.0
  Percent Growth: 102%
IGROV1; Log10 Concentration −7.0
  Percent Growth: 101%
IGROV1; Log10 Concentration −8.0
  Percent Growth: 100%
IGROV1; NCI five dose
  GI50: 3.58 µM
  TGI: 1.32E−5
NCI-H460; Log10 Concentration −4.0
  Percent Growth: −65%
NCI-H460; Log10 Concentration −5.0
  Percent Growth: 78%
NCI-H460; Log10 Concentration −6.0
  Percent Growth: 101%
NCI-H460; Log10 Concentration −7.0
  Percent Growth: 103%
NCI-H460; Log10 Concentration −8.0
  Percent Growth: 103%
NCI-H460; NCI five dose
  GI50: 15.6 µM
  TGI: 3.49E−5
A549/ATCC; Log10 Concentration −4.0
  Percent Growth: −88%
A549/ATCC; Log10 Concentration −5.0
  Percent Growth: 71%
A549/ATCC; Log10 Concentration −6.0
  Percent Growth: 95%
A549/ATCC; Log10 Concentration −7.0
  Percent Growth: 99%
A549/ATCC; Log10 Concentration −8.0
  Percent Growth: 100%
A549/ATCC; NCI five dose
  GI50: 13.5 µM
  TGI: 2.80E−5
TK-10; Log10 Concentration −4.0
  Percent Growth: −95%
TK-10; Log10 Concentration −5.0
  Percent Growth: −5%
TK-10; Log10 Concentration −6.0
  Percent Growth: 96%
TK-10; Log10 Concentration −7.0
  Percent Growth: 98%
TK-10; Log10 Concentration −8.0
  Percent Growth: 94%
TK-10; NCI five dose
  GI50: 2.86 µM
  TGI: 8.97E−6
HL-60(TB); Log10 Concentration −4.0
  Percent Growth: −55%
HL-60(TB); Log10 Concentration −5.0
  Percent Growth: −11%
HL-60(TB); Log10 Concentration −6.0
  Percent Growth: 84%
HL-60(TB); Log10 Concentration −7.0
  Percent Growth: 91%
HL-60(TB); Log10 Concentration −8.0
  Percent Growth: 96%
HL-60(TB); NCI five dose
  GI50: 2.28 µM
  TGI: 7.73E−6
HL-60(TB); read-out: LC50, NCI five dose
  CC50: 77.2 µM
ACHN; Log10 Concentration −4.0
  Percent Growth: −83%
ACHN; Log10 Concentration −5.0
  Percent Growth: 7%
ACHN; Log10 Concentration −6.0
  Percent Growth: 84%
ACHN; Log10 Concentration −7.0
  Percent Growth: 93%
ACHN; Log10 Concentration −8.0
  Percent Growth: 98%
ACHN; NCI five dose
  GI50: 2.78 µM
  TGI: 1.19E−5
MDA-MB-231/ATCC; Log10 Concentration −4.0
  Percent Growth: −77%
MDA-MB-231/ATCC; Log10 Concentration −5.0
  Percent Growth: 31%
MDA-MB-231/ATCC; Log10 Concentration −6.0
  Percent Growth: 86%
MDA-MB-231/ATCC; Log10 Concentration −7.0
  Percent Growth: 89%
MDA-MB-231/ATCC; Log10 Concentration −8.0
  Percent Growth: 106%
MDA-MB-231/ATCC; NCI five dose
  GI50: 4.48 µM
  TGI: 1.93E−5
MDA-MB-435; Log10 Concentration −4.0
  Percent Growth: −81%
MDA-MB-435; Log10 Concentration −5.0
  Percent Growth: 32%
MDA-MB-435; Log10 Concentration −6.0
  Percent Growth: 91%
MDA-MB-435; Log10 Concentration −7.0
  Percent Growth: 93%
MDA-MB-435; Log10 Concentration −8.0
  Percent Growth: 99%
MDA-MB-435; NCI five dose
  GI50: 5.01 µM
  TGI: 1.92E−5
M14; Log10 Concentration −4.0
  Percent Growth: −66%
M14; Log10 Concentration −5.0
  Percent Growth: 27%
M14; Log10 Concentration −6.0
  Percent Growth: 87%
M14; Log10 Concentration −7.0
  Percent Growth: 89%
M14; Log10 Concentration −8.0
  Percent Growth: 99%
M14; NCI five dose
  GI50: 4.1 µM
  TGI: 1.93E−5
SN12C; Log10 Concentration −4.0
  Percent Growth: −59%
SN12C; Log10 Concentration −5.0
  Percent Growth: 28%
SN12C; Log10 Concentration −6.0
  Percent Growth: 93%
SN12C; Log10 Concentration −7.0
  Percent Growth: 97%
SN12C; Log10 Concentration −8.0
  Percent Growth: 96%
SN12C; NCI five dose
  GI50: 4.57 µM
  TGI: 2.09E−5
BT-549; Log10 Concentration −4.0
  Percent Growth: −96%
BT-549; Log10 Concentration −6.0
  Percent Growth: 74%
BT-549; Log10 Concentration −7.0
  Percent Growth: 86%
BT-549; Log10 Concentration −8.0
  Percent Growth: 105%
BT-549; NCI five dose
  GI50: 2.13 µM
  TGI: 9.96E−6
SK-MEL-5; Log10 Concentration −4.0
  Percent Growth: −73%
SK-MEL-5; Log10 Concentration −5.0
  Percent Growth: 56%
SK-MEL-5; Log10 Concentration −6.0
  Percent Growth: 97%
SK-MEL-5; Log10 Concentration −7.0
  Percent Growth: 98%
SK-MEL-5; Log10 Concentration −8.0
  Percent Growth: 100%
SK-MEL-5; NCI five dose
  GI50: 11.1 µM
  TGI: 2.70E−5
HS 578T; Log10 Concentration −4.0
  Percent Growth: 7%
HS 578T; Log10 Concentration −5.0
  Percent Growth: 65%
HS 578T; Log10 Concentration −6.0
  Percent Growth: 87%
HS 578T; Log10 Concentration −7.0
  Percent Growth: 92%
HS 578T; Log10 Concentration −8.0
  Percent Growth: 91%
HS 578T; NCI five dose
  GI50: 18.4 µM
  TGI: >1.00E−4
